PubChem BioAssay (NCI)
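Method: 48-hour compound exposure of cells in 96-well plates, five concentrations, linear interpolation of endpoints. TGI is the concentration that stops growth completely.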

Assays:
Test in all cases: NCI-60 cell line screen, 48 h
MDA-MB-435 = test system: MDA-MB-435
HT29 colon = test system: HT29 colon
786-0 renal = test system: 786-0 renal
NCI-H23 lung = test system: NCI-H23 lung
SF-295 CNS = test system: SF-295 CNS
HCT-15 colon = test system: HCT-15 colon
MDA-N = test system: MDA-N
MOLT-4 leukemia = test system: MOLT-4 leukemia
HCC-2998 colon = test system: HCC-2998 colon
DU-145 prostate = test system: DU-145 prostate
SF-268 CNS = test system: SF-268 CNS
SW-620 colon = test system: SW-620 colon
U251 CNS = test system: U251 CNS
HCT-116 colon = test system: HCT-116 colon
ACHN renal = test system: ACHN renal
A498 renal = test system: A498 renal
IGROV1 ovarian = test system: IGROV1 ovarian
MALME-3M melanoma = test system: MALME-3M melanoma
M14 melanoma = test system: M14 melanoma
MCF7 breast = test system: MCF7 breast
T-47D breast = test system: T-47D breast
NCI-H226 lung = test system: NCI-H226 lung
KM12 colon = test system: KM12 colon
SK-OV-3 ovarian = test system: SK-OV-3 ovarian
SR leukemia = test system: SR leukemia
EKVX NSCLC = test system: EKVX NSCLC
SK-MEL-2 melanoma = test system: SK-MEL-2 melanoma
UACC-257 melanoma = test system: UACC-257 melanoma
PC-3 prostate = test system: PC-3 prostate
TK-10 renal = test system: TK-10 renal
COLO 205 colon = test system: COLO 205 colon
CCRF-CEM leukemia = test system: CCRF-CEM leukemia
SNB-75 CNS = test system: SNB-75 CNS
MDA-MB-231 breast = test system: MDA-MB-231 breast
HL-60(TB) leukemia = test system: HL-60(TB) leukemia
UACC-62 melanoma = test system: UACC-62 melanoma
LOX IMVI melanoma = test system: LOX IMVI melanoma
NCI-H460 lung = test system: NCI-H460 lung
OVCAR-5 ovarian = test system: OVCAR-5 ovarian
HOP-62 NSCLC = test system: HOP-62 NSCLC
OVCAR-3 ovarian = test system: OVCAR-3 ovarian
BT-549 breast = test system: BT-549 breast
NCI-H522 lung = test system: NCI-H522 lung
SF-539 CNS = test system: SF-539 CNS
CAKI-1 renal = test system: CAKI-1 renal
RPMI-8226 leukemia = test system: RPMI-8226 leukemia
RXF 393 renal = test system: RXF 393 renal
A549 NSCLC = test system: A549 NSCLC
UO-31 renal = test system: UO-31 renal
SK-MEL-5 melanoma = test system: SK-MEL-5 melanoma
SNB-19 CNS = test system: SNB-19 CNS
SK-MEL-28 melanoma = test system: SK-MEL-28 melanoma
HS 578T breast = test system: HS 578T breast
SN12C renal = test system: SN12C renal
K-562 leukemia = test system: K-562 leukemia
OVCAR-8 ovarian = test system: OVCAR-8 ovarian
NCI/ADR-RES ovarian = test system: NCI/ADR-RES ovarian
HOP-92 NSCLC = test system: HOP-92 NSCLC
OVCAR-4 ovarian = test system: OVCAR-4 ovarian

Structure (SMILES): COc1cccc(C2c3cc4c(cc3OC(NNc3ccccc3)C2C)OCO4)c1OC (centres undefined)
- TGI (MDA-MB-435): > 100 µM
- TGI (HT29 colon): 58.2 µM
- TGI (786-0 renal): > 100 µM
- TGI (NCI-H23 lung): 96.9 µM
- TGI (SF-295 CNS): 4.24 µM
- TGI (HCT-15 colon): > 100 µM
- TGI (MDA-N): > 100 µM
- TGI (MOLT-4 leukemia): 53.3 µM
- TGI (HCC-2998 colon): 6.79 µM
- TGI (DU-145 prostate): 68.7 µM
- TGI (SF-268 CNS): > 100 µM
- TGI (SW-620 colon): > 100 µM
- TGI (U251 CNS): > 100 µM
- TGI (HCT-116 colon): 23.4 µM
- TGI (ACHN renal): > 100 µM
- TGI (A498 renal): 88.1 µM
- TGI (IGROV1 ovarian): > 100 µM
- TGI (MALME-3M melanoma): 70.7 µM
- TGI (M14 melanoma): > 100 µM
- TGI (MCF7 breast): 76.2 µM
- TGI (T-47D breast): > 100 µM
- TGI (NCI-H226 lung): 74.4 µM
- TGI (KM12 colon): > 100 µM
- TGI (SK-OV-3 ovarian): > 100 µM
- TGI (SR leukemia): 18.8 µM
- TGI (EKVX NSCLC): 32.3 µM
- TGI (SK-MEL-2 melanoma): > 100 µM
- TGI (UACC-257 melanoma): 71.5 µM
- TGI (PC-3 prostate): 46.6 µM
- TGI (TK-10 renal): 25.1 µM
- TGI (COLO 205 colon): 15.7 µM
- TGI (CCRF-CEM leukemia): 31.6 µM
- TGI (SNB-75 CNS): > 100 µM
- TGI (MDA-MB-231 breast): > 100 µM
- TGI (HL-60(TB) leukemia): 17 µM
- TGI (UACC-62 melanoma): > 100 µM
- TGI (LOX IMVI melanoma): > 100 µM
- TGI (NCI-H460 lung): > 100 µM
- TGI (OVCAR-5 ovarian): > 100 µM
- TGI (HOP-62 NSCLC): > 100 µM
- TGI (OVCAR-3 ovarian): 24 µM
- TGI (BT-549 breast): 67.2 µM
- TGI (NCI-H522 lung): > 100 µM
- TGI (SF-539 CNS): 84.2 µM
- TGI (CAKI-1 renal): > 100 µM
- TGI (RPMI-8226 leukemia): > 100 µM
- TGI (RXF 393 renal): 44.1 µM
- TGI (A549 NSCLC): > 100 µM
- TGI (UO-31 renal): > 100 µM
- TGI (SK-MEL-5 melanoma): > 100 µM
- TGI (SNB-19 CNS): > 100 µM
- TGI (SK-MEL-28 melanoma): > 100 µM
- TGI (HS 578T breast): 80.1 µM
- TGI (SN12C renal): > 100 µM
- TGI (K-562 leukemia): 9.05 µM
- TGI (OVCAR-8 ovarian): > 100 µM

Structure (SMILES): COC(=O)C(C)(C)NC(=O)C(Cc1ccccc1)Nc1ncnc2c1ncn2-c1ccc(OC)cc1 (centres undefined)
- TGI (MDA-MB-435): 32 µM
- TGI (HT29 colon): 46.6 µM
- TGI (786-0 renal): > 100 µM
- TGI (NCI-H23 lung): > 100 µM
- TGI (SF-295 CNS): > 100 µM
- TGI (HCT-15 colon): > 100 µM
- TGI (MDA-N): 43.9 µM
- TGI (NCI/ADR-RES ovarian): > 100 µM
- TGI (HCC-2998 colon): > 100 µM
- TGI (DU-145 prostate): > 100 µM
- TGI (SF-268 CNS): > 100 µM
- TGI (SW-620 colon): 54.1 µM
- TGI (U251 CNS): > 100 µM
- TGI (HCT-116 colon): > 100 µM
- TGI (ACHN renal): > 100 µM
- TGI (A498 renal): 72.7 µM
- TGI (IGROV1 ovarian): > 100 µM
- TGI (M14 melanoma): > 100 µM
- TGI (MCF7 breast): 72.4 µM
- TGI (T-47D breast): 58.2 µM
- TGI (NCI-H226 lung): > 100 µM
- TGI (KM12 colon): 96.7 µM
- TGI (SK-OV-3 ovarian): > 100 µM
- TGI (EKVX NSCLC): 45.6 µM
- TGI (SK-MEL-2 melanoma): > 100 µM
- TGI (UACC-257 melanoma): > 100 µM
- TGI (PC-3 prostate): > 100 µM
- TGI (TK-10 renal): > 100 µM
- TGI (COLO 205 colon): > 100 µM
- TGI (CCRF-CEM leukemia): 35.8 µM
- TGI (SNB-75 CNS): 69.1 µM
- TGI (MDA-MB-231 breast): > 100 µM
- TGI (UACC-62 melanoma): > 100 µM
- TGI (LOX IMVI melanoma): > 100 µM
- TGI (NCI-H460 lung): 73.5 µM
- TGI (OVCAR-5 ovarian): > 100 µM
- TGI (HOP-62 NSCLC): > 100 µM
- TGI (HOP-92 NSCLC): 58.2 µM
- TGI (OVCAR-3 ovarian): > 100 µM
- TGI (BT-549 breast): 98.6 µM
- TGI (NCI-H522 lung): 34.2 µM
- TGI (CAKI-1 renal): > 100 µM
- TGI (RPMI-8226 leukemia): > 100 µM
- TGI (OVCAR-4 ovarian): > 100 µM
- TGI (A549 NSCLC): > 100 µM
- TGI (UO-31 renal): > 100 µM
- TGI (SK-MEL-5 melanoma): > 100 µM
- TGI (SNB-19 CNS): > 100 µM
- TGI (SK-MEL-28 melanoma): > 100 µM
- TGI (HS 578T breast): 79.8 µM
- TGI (SN12C renal): > 100 µM
- TGI (K-562 leukemia): > 100 µM
- TGI (OVCAR-8 ovarian): > 100 µM
